Results reported in patent US20080182234A1, “Methods and Compositions for Modulating Adenosine Triphosphate (ATP) in Cells and Preventing Cell Injury or Death via Post-translational Modifications to ATP Synthase” (priority 2001, published 2008).
Entries after “also recorded” stand apart in the source; their conditions may differ.

Legend:
[1] = system: ATP synthase β chain precursor; assay: Two-dimensional gel electrophoresis (silver stain, western blot) of cytoplasmic extract of adenosine-treated isolated myocytes; assay type: cell-based, rabbit
Procedure: Ventricular myocytes from New Zealand White rabbits (weighing 1 to 2 kg) were isolated by collagenase dissociation, as described previously by Liu et al. (Circ. Res. 1996 78:443-454). Hearts were excised, then perfused with collagenase (1.0 mg/mL, Worthington type II) for 14 minutes at a maintained perfusion pressure of 75 mm Hg on a Langendorff apparatus, yielding >50% Ca^2+-tolerant ventricular myocytes. Cell isolation was followed directly by pharmacological preconditioning, which was carried out by treatment with 100 μmol/L adenosine (Sigma) for 60 minutes in a 37° C. water bath, as described previously by Liu et al. supra. Untreated cells were prepared concurrently as drug-free controls. Equivalent 25 μL aliquots of cells (containing ˜30 mg/mL of protein as determined by Lowry assay (Lowry, O. H. J. Biol. Chem. 1951 193:265-275) were frozen and stored at −80° C. until analysis. All steps in the “1N Sequence” protein extraction protocol to produce cytoplasmic and myofilament enriched extracts were carried out at 4° C., and all centrifugations were conducted at 16000×g for 2 minutes at 4° C. Myocyte proteins were first extracted by two rounds of homogenization in 100 μL of HEPES extraction buffer, consisting of (in mmol/L) HEPES 25 (pH 7.4), NaF 50, Na3VO4 0.25, phenylmethylsulfonyl fluoride 0.25, EDTA 0.5, and (in μmol/L) leupeptin 1.25, pepstatin A 1.25. […]

[2] = system: isolated myocytes obtained from rabbit hearts; details: 100 μM adenosine for 60 minutes; cited from earlier work

SMILES: Nc1ncnc2c1ncn2[C@@H]1O[C@H](CO)[C@@H](O)[C@H]1O [adenosine]
- additional, more acidic spots at the molecular weight of intact ATP synthase β chain precursor on 2-D gel (silver stain or western blot) ([1]; isolated rabbit cardiomyocytes, 100 μM adenosine for 60 minutes, cytoplasmic extract, n=4, control had only a single protein spot): Two additional spots
- post-translational modifications of ATP synthase β-chain precursor ([1]; isolated rabbit myocytes treated with adenosine for 60 minutes (n=4) versus untreated myocytes): An increase in the post-translational modifications; also recorded: Post-translational modifications to the ATP synthase β-chain precursor were detected
- protection against cell death [2]: sufficient to protect against cell death
